Data on one compound can be found in ChEMBL document CHEMBL4842385, “Indirubin Derivatives as Dual Inhibitors Targeting Cyclin-Dependent Kinase and Histone Deacetylase for Treating Cancer” (J Med Chem, 2021).

Molecules are shown by their SMILES. Active and inactive are the calls of the source. The calls are words filed in the database; no cut-off is given here.

For series [1], the system named is A549. Kind of series: Antitumor activity against human A549 cells xenografted in BALB/c nude mouse assessed as reduction in tumor volume at 0.75 to 1.5 mg, IT (intratumoral) administered for 21 consecutive days. It is filed as functional, cell-based. Conditions: dose 0.75-1.5 mg, time 21.0 day. (In general: Xenograft models place foreign cells or tissue in a host animal.)

Series [2] can be described thus: Toxicity in BALB/c nude mouse xenografted with human A549 cells assessed as adverse effect at 25 to 50 mg/kg, iv administered for 21 consecutive days. It counts as organism-based. Conditions: in vivo, 504 h, dose 25-50 mg/kg, time 21 day.
The subject of series [3] is A549. Kind of series: Cycle arrest in human A549 cells assessed as increase in cell population at S phase measured after 24 hrs by propidium iodide/RNase staining based flow cytometry. It counts as functional. Particulars: dose 2.5-10 µM. A general note: Flow cytometry measures light scatter and fluorescence of single cells or particles in a stream.
In series [4] the target is Protein deacetylase HDAC6 (Mus musculus) (UniProt Q9Z2V5). Kind of series: In vivo inhibition of HDAC6 in BALB/c nude mouse xenografted with human A549 cells assessed as increase in alpha tubulin acetylation at 25 to 50 mg/kg, iv administered for 21 consecutive days by immunohistochemical analysis. It counts as functional, organism-based. Particulars: dose 25-50 mg/kg, time 21.0 day.
Sequence of Protein deacetylase HDAC6 (Mus musculus) (Q9Z2V5 whole entry): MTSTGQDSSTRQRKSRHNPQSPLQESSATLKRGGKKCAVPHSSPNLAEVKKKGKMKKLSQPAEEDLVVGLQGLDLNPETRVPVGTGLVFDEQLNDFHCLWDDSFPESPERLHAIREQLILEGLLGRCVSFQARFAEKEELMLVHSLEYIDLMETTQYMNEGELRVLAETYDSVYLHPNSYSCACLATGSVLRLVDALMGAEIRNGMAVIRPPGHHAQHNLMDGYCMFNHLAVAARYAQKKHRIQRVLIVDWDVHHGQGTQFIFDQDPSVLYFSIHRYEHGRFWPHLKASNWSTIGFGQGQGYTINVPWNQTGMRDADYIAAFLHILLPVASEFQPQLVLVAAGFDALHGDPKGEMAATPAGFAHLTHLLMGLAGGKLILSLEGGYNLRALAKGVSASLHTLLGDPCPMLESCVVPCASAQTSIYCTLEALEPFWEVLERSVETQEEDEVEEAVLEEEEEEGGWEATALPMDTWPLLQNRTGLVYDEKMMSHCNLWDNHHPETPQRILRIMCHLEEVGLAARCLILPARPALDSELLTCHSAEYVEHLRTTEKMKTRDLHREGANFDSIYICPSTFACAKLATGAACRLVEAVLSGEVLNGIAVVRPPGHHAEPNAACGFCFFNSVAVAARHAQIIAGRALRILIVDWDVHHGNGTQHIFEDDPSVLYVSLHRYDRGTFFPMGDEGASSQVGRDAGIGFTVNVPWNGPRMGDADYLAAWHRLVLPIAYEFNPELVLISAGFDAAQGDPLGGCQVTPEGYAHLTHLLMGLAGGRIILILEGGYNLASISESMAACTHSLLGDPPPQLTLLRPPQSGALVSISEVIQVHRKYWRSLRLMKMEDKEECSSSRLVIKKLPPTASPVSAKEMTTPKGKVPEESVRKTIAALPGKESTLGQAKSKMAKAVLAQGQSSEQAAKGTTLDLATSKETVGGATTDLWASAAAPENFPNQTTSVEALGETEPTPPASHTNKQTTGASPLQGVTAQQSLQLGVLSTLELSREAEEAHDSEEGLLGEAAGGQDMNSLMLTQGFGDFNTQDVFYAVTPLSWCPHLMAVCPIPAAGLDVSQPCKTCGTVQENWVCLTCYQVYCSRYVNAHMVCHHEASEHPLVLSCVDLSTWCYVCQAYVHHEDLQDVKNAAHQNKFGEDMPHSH

Series [5] can be described thus: Toxicity in BALB/c nude mouse xenografted with human A549 cells assessed as body weight loss at 25 to 50 mg/kg, iv administered for 21 consecutive days. It counts as organism-based. Conditions: in vivo, 504 h, dose 25-50 mg/kg, time 21 day.
The next series has as its system Mus musculus. In words: In vivo inhibition of CDK2/4/6 in BALB/c nude mouse xenografted with human A549 cells assessed as reduction in Rb phosphorylation at 25 to 50 mg/kg, iv administered for 21 consecutive days by immunohistochemical analysis. It counts as functional, organism-based. Particulars: dose 25-50 mg/kg.
The subject of series [6] is A549. In words: Antitumor activity against human A549 cells xenografted in BALB/c nude mouse assessed as reduction in tumor weight at 0.75 to 1.5 mg, IT (intratumoral) administered for 21 consecutive days. It counts as functional, cell-based. Conditions: dose 0.75-1.5 mg, time 21.0 day.
For series [7], the system named is A549. Kind of series: Induction of apoptosis in human A549 cells measured after 48 hrs by Annexin-V/FITC-propidium iodide staining based flow cytometry analysis. It is filed as functional, cell-based. Particulars: dose 2.5-10 µM.
Series [8] has as its system A549. In words: Induction of apoptosis in human A549 cells assessed as downregulation of Mcl-1 protein measured after 48 hrs by Western blot analysis. It is filed as functional, cell-based. Conditions: dose 1-10 µM. (In general: In western blotting, separated proteins are transferred to a membrane and probed.)
Series [9] in a line: Toxicity in BALB/c nude mouse xenografted with human A549 cells assessed as body weight loss at 0.75 to 1.5 mg, IT(intratumoral) administered for 21 consecutive days. Conditions: in vivo, other, 504 h, dose 0.75-1.5 mg, time 21 day.
For series [10], the target named is T1, Protein deacetylase HDAC6 (Homo sapiens) (UniProt Q9UBN7).
T1 sequence (whole entry): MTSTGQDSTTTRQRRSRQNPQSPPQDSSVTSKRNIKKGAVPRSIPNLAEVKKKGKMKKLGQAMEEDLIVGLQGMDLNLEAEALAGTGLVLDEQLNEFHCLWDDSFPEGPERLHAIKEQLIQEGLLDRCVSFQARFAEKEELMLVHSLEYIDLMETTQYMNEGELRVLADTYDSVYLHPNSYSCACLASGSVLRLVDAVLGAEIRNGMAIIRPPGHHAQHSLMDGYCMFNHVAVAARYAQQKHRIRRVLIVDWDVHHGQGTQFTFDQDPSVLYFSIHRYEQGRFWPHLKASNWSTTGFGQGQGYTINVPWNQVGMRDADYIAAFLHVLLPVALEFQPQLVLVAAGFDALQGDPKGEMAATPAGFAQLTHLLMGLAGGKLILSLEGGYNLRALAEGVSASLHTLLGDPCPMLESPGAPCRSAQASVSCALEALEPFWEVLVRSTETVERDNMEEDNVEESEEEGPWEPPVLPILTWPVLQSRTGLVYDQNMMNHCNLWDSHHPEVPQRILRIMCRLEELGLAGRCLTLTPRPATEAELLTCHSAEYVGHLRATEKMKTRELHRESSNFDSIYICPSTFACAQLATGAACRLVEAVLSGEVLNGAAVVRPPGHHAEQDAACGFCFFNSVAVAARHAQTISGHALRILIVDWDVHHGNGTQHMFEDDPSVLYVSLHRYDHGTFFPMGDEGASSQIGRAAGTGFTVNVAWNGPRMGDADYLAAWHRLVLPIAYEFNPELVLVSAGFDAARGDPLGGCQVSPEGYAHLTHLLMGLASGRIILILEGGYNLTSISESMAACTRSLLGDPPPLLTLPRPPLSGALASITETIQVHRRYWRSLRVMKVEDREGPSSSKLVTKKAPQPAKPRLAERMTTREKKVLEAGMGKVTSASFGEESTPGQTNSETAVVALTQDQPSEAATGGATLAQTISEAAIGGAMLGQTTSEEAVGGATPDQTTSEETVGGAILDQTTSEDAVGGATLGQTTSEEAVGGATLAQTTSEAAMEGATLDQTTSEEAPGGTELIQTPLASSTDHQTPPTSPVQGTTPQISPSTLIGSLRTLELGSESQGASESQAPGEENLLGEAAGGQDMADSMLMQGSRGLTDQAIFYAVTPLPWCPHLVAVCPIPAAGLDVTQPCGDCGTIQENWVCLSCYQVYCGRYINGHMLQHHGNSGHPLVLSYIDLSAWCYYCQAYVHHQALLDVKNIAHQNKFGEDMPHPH
Kind of series: Inhibition of HDAC6 in human MCF7 cells assessed as accumulation of acetylation of H3 at 1 to 10 uM measured after 48 hrs by Western blot analysis. It is filed as cell-based. Conditions: dose 1-10 µM.

The next series deals with MCF7. In words: Induction of apoptosis in human MCF7 cells assessed as increase in sum of early and late apoptotic cells at 2.5 to 10 uM measured after 48 hrs by Annexin-V/FITC-propidium iodide staining based flow cytometry analysis. Particulars: dose 2.5-10 µM. It is filed as functional, cell-based.
The target in series [11] is T1, Protein deacetylase HDAC6 (Homo sapiens). Kind of series: Inhibition of HDAC6 in human K562 cells assessed as accumulation of acetylation of […] at 1 to 10 uM measured after 48 hrs by Western blot analysis. It is filed as cell-based. Conditions: dose 1-10 µM.
Series [12] has the same target. In words: Inhibition of HDAC6 in human A549 cells assessed as increase in alpha tubulin acetylation at 10 uM incubated for 24 hrs followed by compound washout by DAPI staining based immunofluorescence assay. It is filed as cell-based.
In series [13] the test system is A549. Kind of series: Induction of apoptosis in human A549 cells assessed as downregulation of […] protein measured after 48 hrs by Western blot analysis. It is filed as functional, cell-based. Conditions: dose 1-10 µM.

Take `O=C(CCCO/N=C1/C(=C2/C(=O)Nc3ccccc32)Nc2ccccc21)NO`: the result with A549 [1], with A549 [6] and in the series with MCF7 was Active. In addition, the Activity result in series [2] was “Non-Toxic”; in the series with A549 [3] it was “Dose-Dependent Effect”; in [5] it was “Non-Toxic”; with A549 [7], “Dose-Dependent Effect”; in the series on A549 [8], “Dose-Dependent Effect”; in series [9], “Non-Toxic”. For the same compound, in the series on A549 [13], the Activity entry was “Dose-Dependent Effect”. Moreover, the inhibition entry (in series [4]; in the series on Mus musculus; in series [12]) was “Active” in each case. Moreover, the inhibition entry in [10] and in [11] was “inactive” in each case.
